Reference: ChEMBL document CHEMBL1201861, “Genomics of Drug Sensitity in Cancer screening data, Wellcome Trust Sanger Institute”

Experiments:
Assay in all cases: cells
T98G = type: functional, cell-based, Homo sapiens; conditions: Homo sapiens, T98G;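 further: growth inhibition of T98G cells, read out by a cell viability assay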
Description: SANGER: Inhibition of human T98G cell growth in a cell viability assay.

COLO-680N = type: functional, cell-based, Homo sapiens; conditions: Homo sapiens, COLO-680N;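 further: cell viability assay used to measure inhibition of COLO-680N cell growth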
Description: SANGER: Inhibition of human COLO-680N cell growth in a cell viability assay.

647-V = type: functional, cell-based, Homo sapiens; conditions: Homo sapiens, 647-V;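 further: growth inhibition of 647-V cells, read out with a cell viability assay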
Description: SANGER: Inhibition of human 647-V cell growth in a cell viability assay.

MDA-MB-231 = type: functional, cell-based, Homo sapiens; conditions: Homo sapiens, MDA-MB-231
Description: SANGER: Inhibition of human MDA-MB-231 cell growth in a cell viability assay.

A673 = type: functional, cell-based, Homo sapiens; conditions: Homo sapiens, A673;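 further: growth inhibition of human A673 cells, read out through a cell viability assay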
Description: SANGER: Inhibition of human A673 cell growth in a cell viability assay.

A549 = type: functional, cell-based, Homo sapiens; conditions: Homo sapiens, A549;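 further: growth inhibition of A549 cells, read out with a cell viability assay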
Description: SANGER: Inhibition of human A549 cell growth in a cell viability assay.

NCI-H522 = type: functional, cell-based, Homo sapiens; conditions: Homo sapiens, NCI-H522;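 further: cell viability assay measuring growth inhibition of human NCI-H522 cells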
Description: SANGER: Inhibition of human NCI-H522 cell growth in a cell viability assay.

Hs-578T = type: functional, cell-based, Homo sapiens; conditions: Homo sapiens, Hs-578T
Description: SANGER: Inhibition of human Hs-578-T cell growth in a cell viability assay.

KYSE-270 = type: functional, cell-based, Homo sapiens; conditions: Homo sapiens, KYSE-270;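 further: cell growth inhibition measured with a viability assay in the human KYSE-270 line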
Description: SANGER: Inhibition of human KYSE-270 cell growth in a cell viability assay.

OAW-28 = type: functional, cell-based, Homo sapiens; conditions: Homo sapiens, OAW-28;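 further: growth inhibition of OAW-28 cells, read out with a cell viability assay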
Description: SANGER: Inhibition of human OAW-28 cell growth in a cell viability assay.

HCC1395 = type: functional, cell-based, Homo sapiens; conditions: Homo sapiens, HCC1395;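 further: growth inhibition of HCC1395 cells, read out by a cell viability assay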
Description: SANGER: Inhibition of human HCC1395 cell growth in a cell viability assay.

A-427 = type: functional, cell-based, Homo sapiens; conditions: Homo sapiens, A-427;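 further: growth inhibition of human A-427 cells, read out by a cell viability assay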
Description: SANGER: Inhibition of human A427 cell growth in a cell viability assay.

MCF7 = type: functional, cell-based, Homo sapiens; conditions: Homo sapiens, MCF7;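 further: growth inhibition of human MCF7 cells, read out with a cell viability assay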
Description: SANGER: Inhibition of human MCF7 cell growth in a cell viability assay.

SCC-25 = type: functional, cell-based, Homo sapiens; conditions: Homo sapiens, SCC-25;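 further: growth inhibition of SCC-25 cells, measured with a cell viability assay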
Description: SANGER: Inhibition of human SCC-25 cell growth in a cell viability assay.

HCC1806 = type: functional, cell-based, Homo sapiens; conditions: Homo sapiens, HCC1806;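 further: growth inhibition of the cancer cell line, determined with a cell viability assay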
Description: SANGER: Inhibition of human HCC1806 cell growth in a cell viability assay.

CFPAC-1 = type: functional, cell-based, Homo sapiens; conditions: Homo sapiens, CFPAC-1;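 further: cell viability readout used to gauge suppression of CFPAC-1 cell proliferation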
Description: SANGER: Inhibition of human CFPAC-1 cell growth in a cell viability assay.

NCI-H2122 = type: functional, cell-based, Homo sapiens; conditions: Homo sapiens, NCI-H2122;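 further: growth inhibition of the cells, read out with a cell viability assay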
Description: SANGER: Inhibition of human NCI-H2122 cell growth in a cell viability assay.

SK-OV-3 = type: functional, cell-based, Homo sapiens; conditions: Homo sapiens, SK-OV-3;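 further: growth inhibition of SK-OV-3 human cells, read out with a cell viability assay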
Description: SANGER: Inhibition of human SK-OV-3 cell growth in a cell viability assay.

G-402 = type: functional, cell-based, Homo sapiens; conditions: Homo sapiens, G-402
Description: SANGER: Inhibition of human G-402 cell growth in a cell viability assay.

MIA PaCa-2 = type: functional, cell-based, Homo sapiens; conditions: Homo sapiens, MIA PaCa-2;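 further: growth inhibition of MIA PaCa-2 cells, read out with a cell viability assay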
Description: SANGER: Inhibition of human MIA-PaCa-2 cell growth in a cell viability assay.

AU565 = type: functional, cell-based, Homo sapiens; conditions: Homo sapiens, AU565;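 further: cell viability assay measuring growth inhibition of human AU565 cells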
Description: SANGER: Inhibition of human AU565 cell growth in a cell viability assay.

NCI-H2030 = type: functional, cell-based, Homo sapiens; conditions: Homo sapiens, NCI-H2030;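 further: growth inhibition of human NCI-H2030 cells, read out by a cell viability assay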
Description: SANGER: Inhibition of human NCI-H2030 cell growth in a cell viability assay.

UMUC3 = type: functional, cell-based, Homo sapiens; conditions: Homo sapiens, UMUC3;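 further: growth inhibition of human UM-UC-3 cells, read out with a cell viability assay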
Description: SANGER: Inhibition of human UM-UC-3 cell growth in a cell viability assay.

RERF-LC-MS = type: functional, cell-based, Homo sapiens; conditions: Homo sapiens, RERF-LC-MS;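 further: growth inhibition of human RERF-LC-MS cells, read out by a cell viability assay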
Description: SANGER: Inhibition of human RERF-LC-MS cell growth in a cell viability assay.

NCI-H596 = type: functional, cell-based, Homo sapiens; conditions: Homo sapiens, NCI-H596;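 further: growth inhibition of NCI-H596 cells, read out with a cell viability assay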
Description: SANGER: Inhibition of human NCI-H596 cell growth in a cell viability assay.

U2OS = type: functional, cell-based, Homo sapiens, U-2-OS; conditions: Homo sapiens, U2OS;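 further: growth inhibition of human U-2-OS cells, determined with a cell viability assay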
Description: SANGER: Inhibition of human U-2-OS cell growth in a cell viability assay.

SW1417 = type: functional, cell-based, Homo sapiens; conditions: Homo sapiens, SW1417;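 further: growth inhibition of human SW1417 cells, read out with a cell viability assay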
Description: SANGER: Inhibition of human SW1417 cell growth in a cell viability assay.

NCI-H1563 = type: functional, cell-based, Homo sapiens; conditions: Homo sapiens, NCI-H1563;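 further: growth inhibition of human NCI-H1563 cells, read out with a cell viability assay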
Description: SANGER: Inhibition of human NCI-H1563 cell growth in a cell viability assay.

A2780 = type: functional, cell-based, Homo sapiens; conditions: Homo sapiens, A2780;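 further: growth inhibition of A2780 cells, read out with a cell viability assay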
Description: SANGER: Inhibition of human A2780 cell growth in a cell viability assay.

HLE = type: functional, cell-based, Homo sapiens; conditions: Homo sapiens, HLE;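 further: growth inhibition of human HLE cells, read out by a cell viability assay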
Description: SANGER: Inhibition of human HLE cell growth in a cell viability assay.

HO-1-N-1 = type: functional, cell-based, Homo sapiens; conditions: Homo sapiens, HO-1-N-1;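 further: growth inhibition of human HO-1-N-1 cells, read out with a cell viability assay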
Description: SANGER: Inhibition of human HO-1-N-1 cell growth in a cell viability assay.

GCT = type: functional, cell-based, Homo sapiens; conditions: Homo sapiens, GCT;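 further: GCT cell line proliferation inhibition, read out with a cell viability assay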
Description: SANGER: Inhibition of human GCT cell growth in a cell viability assay.

SKG-IIIa = type: functional, cell-based, Homo sapiens; conditions: Homo sapiens, SKG-IIIa;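 further: cell growth inhibition, read out with a cell viability assay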
Description: SANGER: Inhibition of human SKG-IIIa cell growth in a cell viability assay.

SNU-449 = type: functional, cell-based, Homo sapiens; conditions: Homo sapiens, SNU-449
Description: SANGER: Inhibition of human SNU-449 cell growth in a cell viability assay.

Huh-7 = type: functional, cell-based, Homo sapiens; conditions: Homo sapiens, Huh-7;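 further: HuH-7 cell growth inhibition, read out with a cell viability assay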
Description: SANGER: Inhibition of human HuH-7 cell growth in a cell viability assay.

HSC-4 = type: functional, cell-based, Homo sapiens; conditions: Homo sapiens, HSC-4;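 further: growth inhibition of human HSC-4 cells, read out with a cell viability assay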
Description: SANGER: Inhibition of human HSC-4 cell growth in a cell viability assay.

SMILES | IC50 (T98G) [µM] | IC50 (COLO-680N) [µM] | IC50 (647-V) [µM] | IC50 (MDA-MB-231) [µM] | IC50 (A673) [µM] | IC50 (A549) [µM] | IC50 (Hs-578T) [µM] | IC50 (KYSE-270) [µM] | IC50 (OAW-28) [µM] | IC50 (HCC1395) [µM] | IC50 (A-427) [µM] | IC50 (MCF7) [µM] | IC50 (SCC-25) [µM] | IC50 (HCC1806) [µM] | IC50 (CFPAC-1) [µM] | IC50 (NCI-H2122) [µM] | IC50 (SK-OV-3) [µM] | IC50 (G-402) [µM] | IC50 (MIA PaCa-2) [µM] | IC50 (AU565) [µM] | other results
CC(C)CCN1c2nc(Nc3cc(F)c(O)c(F)c3)ncc2N(C)C(=O)C1C (stereo not given) | 3.28 | > 5 | > 5 | 4.72 | > 5 | 1.31 | > 5 | > 5 | > 5 | > 5 | 3.11 | > 5 | > 5 | > 5 | > 5 | > 5 | > 5 | > 5 | 4.36 | > 5 | IC50 (NCI-H522): > 5 µM; IC50 (NCI-H2030): > 5 µM; IC50 (UMUC3): > 5 µM; IC50 (RERF-LC-MS): > 5 µM; IC50 (NCI-H596): > 5 µM; IC50 (U2OS): > 5 µM; IC50 (SW1417): > 5 µM; IC50 (NCI-H1563): > 5 µM; IC50 (A2780): > 5 µM; IC50 (HLE): > 5 µM; IC50 (HO-1-N-1): 3.8 µM; IC50 (GCT): 2.31 µM; IC50 (SKG-IIIa): > 5 µM; IC50 (SNU-449): > 5 µM; IC50 (Huh-7): > 5 µM
Nc1cccc2c1CN(C1CCC(=O)NC1=O)C2=O (stereo not given) [LENALIDOMIDE] | > 5 | > 5 | > 5 | > 5 | > 5 | > 5 | > 5 | > 5 | > 5 | > 5 | > 5 | > 5 | > 5 | > 5 | > 5 | > 5 | > 5 | > 5 | > 5 | > 5 | IC50 (NCI-H2030): > 5 µM; IC50 (UMUC3): > 5 µM; IC50 (RERF-LC-MS): > 5 µM; IC50 (NCI-H596): > 5 µM; IC50 (HSC-4): > 5 µM; IC50 (U2OS): > 5 µM; IC50 (SW1417): > 5 µM; IC50 (NCI-H1563): > 5 µM; IC50 (A2780): > 5 µM; IC50 (HLE): > 5 µM; IC50 (HO-1-N-1): > 5 µM; IC50 (GCT): > 5 µM; IC50 (SKG-IIIa): > 5 µM; IC50 (SNU-449): > 5 µM; IC50 (Huh-7): > 5 µM
Cc1cn(-c2cc(NC(=O)c3ccc(C)c(Nc4nccc(-c5cccnc5)n4)c3)cc(C(F)(F)F)c2)cn1 [NILOTINIB] | > 2 | > 2 | > 2 | > 2 | > 2 | > 2 | > 2 | > 2 | > 2 | > 2 | > 2 | > 2 | > 2 | > 2 | > 2 | > 2 | > 2 | > 2 | > 2 | > 2 | IC50 (NCI-H2030): > 2 µM; IC50 (UMUC3): > 2 µM; IC50 (RERF-LC-MS): > 2 µM; IC50 (NCI-H596): > 2 µM; IC50 (HSC-4): > 2 µM; IC50 (U2OS): > 2 µM; IC50 (SW1417): > 2 µM; IC50 (NCI-H1563): > 2 µM; IC50 (A2780): > 2 µM; IC50 (HLE): > 2 µM; IC50 (HO-1-N-1): > 2 µM; IC50 (GCT): > 2 µM; IC50 (SKG-IIIa): > 2 µM; IC50 (SNU-449): > 2 µM; IC50 (Huh-7): > 2 µM
